From paper PMC10135569, “Does Enhanced Structural Maturity of hiPSC-Cardiomyocytes Better for the Detection of Drug-Induced Cardiotoxicity?” (Biomolecules, 2023)
Values belong to the compound of their own block, whether it stands above or below them.

Legend:
[1] = test system: hiPSC-CMs (iCell2 Cardiomyocytes) 2D monolayers; assay: Membrane potential (action potential) recordings with FluoVolt voltage-sensitive dye on the CellOPTIQ platform; format: cell-based, human; settings: for activity at 1 µM / activity at 3 µM / activity at 10 µM / activity at 0.1 µM / activity at 0.3 µM: Homo sapiens, Cardiomyocyte, 0.5 h, 30 min, delta over DMSO 0.1%
How it was run: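 iCell2 hiPSC-CM monolayers (50,000 cells/well on fibronectin or Matrix Plus, days 5–6) were loaded with FluoVolt (1:1000, 20 min, 37 °C) and imaged at 37 °C with 470 nm excitation and 510–560 nm emission sampled at 10 kHz. Spontaneous action potentials were recorded for 10 s at baseline and 30 min after drug, with one of four concentrations per well (n = 8).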

[2] = test system: hiPSC-CMs (iCell2 Cardiomyocytes) 2D monolayers; assay: Contractility measurements using video imaging (ContractilityTool / MUSCLEMOTION); format: cell-based, human; settings: for activity at 1 µM / activity at 3 µM / activity at 10 µM / activity at 0.1 µM / activity at 0.3 µM: Homo sapiens, Cardiomyocyte, 0.5 h, 30 min, delta over DMSO 0.1%
How it was run: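 Monolayers on fibronectin or Matrix Plus coating, tested on days 5–6 in serum-free medium. Four concentrations, one per well, n = 8, with vehicle control.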

[3] = listed in Supplementary Table S1; no reference given; cited from earlier work
[4] = FM monolayer, read-out: APD30 (%DD)
[5] = FM monolayer, read-out: APD90 (%DD)
[6] = FM monolayer, read-out: CL (%DD)
[7] = FM monolayer, read-out: Trise (%DD)
[8] = MM monolayer, read-out: APD30 (%DD)
[9] = MM monolayer, read-out: APD90 (%DD)
[10] = MM monolayer, read-out: CL (%DD)
[11] = MM monolayer, read-out: Trise (%DD)
[12] = FM monolayer, read-out: CtAmp (%DD)
[13] = FM monolayer, read-out: CtD50 (%DD)
[14] = MM monolayer, read-out: CtAmp (%DD)
[15] = MM monolayer, read-out: CtD50 (%DD)
[16] = 0.01–1 uM, two 2D monolayer models

- electrical activity of the monolayers at higher concentrations ([1]; higher concentrations, FM and MM): electrically quiescent
Structure (SMILES): CC(CCc1ccc(O)cc1)NCCc1ccc(O)c(O)c1 (stereo not drawn) [Dobutamine]
- activity at 1 µM [1, 4]: 84 ± 1.4%
- activity at 1 µM [1, 5]: 89 ± 0.9%
- activity at 1 µM [1, 6]: 76 ± 0.4%
- activity at 1 µM [1, 7]: 86 ± 5.3%
- activity at 3 µM [1, 4]: 77 ± 1.5%
- activity at 3 µM [1, 5]: 86 ± 0.8%
- activity at 3 µM [1, 6]: 77 ± 0.9%
- activity at 3 µM [1, 7]: 100 ± 18.9%
- activity at 10 µM [1, 4]: 90 ± 2%
- activity at 10 µM [1, 5]: 91 ± 1.9%
- activity at 10 µM [1, 6]: 81 ± 0.8%
- activity at 10 µM [1, 7]: 131 ± 21.5%
- activity at 1 µM [1, 8]: 89 ± 1.2%
- activity at 1 µM [1, 9]: 91 ± 1%
- activity at 1 µM [1, 10]: 75 ± 0.7%
- activity at 1 µM [1, 11]: 91 ± 7.1%
- activity at 3 µM [1, 8]: 85 ± 1.3%
- activity at 3 µM [1, 9]: 91 ± 0.9%
- activity at 3 µM [1, 10]: 76 ± 0.5%
- activity at 3 µM [1, 11]: 109 ± 14.1%
- activity at 10 µM [1, 8]: 86 ± 1.9%
- activity at 10 µM [1, 9]: 96 ± 0.9%
- activity at 10 µM [1, 10]: 81 ± 0.6%
- activity at 10 µM [1, 11]: 146 ± 13.9%
- effect on cycle length (in words) ([1]; both FM and MM monolayers, concentration not given): concentration-dependent decrease
- activity at 1 µM [2, 12]: 93 ± 10.7%
- activity at 1 µM [2, 13]: 79 ± 1.5%
- activity at 3 µM [2, 12]: 99 ± 8.4%
- activity at 3 µM [2, 13]: 75 ± 2%
- activity at 10 µM [2, 12]: 82 ± 3.2%
- activity at 10 µM [2, 13]: 82 ± 2.2%
- activity at 1 µM [2, 14]: 101 ± 11.6%
- activity at 1 µM [2, 15]: 82 ± 1.1%
- activity at 3 µM [2, 14]: 89 ± 6.3%
- activity at 3 µM [2, 15]: 78 ± 1.2%
- activity at 10 µM [2, 14]: 98 ± 7.5%
- activity at 10 µM [2, 15]: 77 ± 1.3%
- Free Cmax [3]: 80 nM

Structure (SMILES): C[C@@H]1CC(=O)NN=C1c1ccc(NN=C(C#N)C#N)cc1 [Levosimendan]
- effects on electrical activity [1, 16]: no physiologically significant effects
- activity at 0.1 µM [1, 4]: 102 ± 2.2%
- activity at 0.1 µM [1, 5]: 96 ± 1.7%
- activity at 0.1 µM [1, 6]: 95 ± 1.4%
- activity at 0.1 µM [1, 7]: 97 ± 22.3%
- activity at 0.3 µM [1, 4]: 101 ± 2.9%
- activity at 0.3 µM [1, 5]: 94 ± 1.1%
- activity at 0.3 µM [1, 6]: 93 ± 1.1%
- activity at 0.3 µM [1, 7]: 80 ± 13.5%
- activity at 1 µM [1, 4]: 94 ± 3%
- activity at 1 µM [1, 5]: 93 ± 0.6%
- activity at 1 µM [1, 6]: 93 ± 1.6%
- activity at 1 µM [1, 7]: 65 ± 9.5%
- activity at 3 µM [1, 4]: 99 ± 3.9%
- activity at 3 µM [1, 5]: 94 ± 1%
- activity at 3 µM [1, 6]: 97 ± 1.2%
- activity at 3 µM [1, 7]: 101 ± 24.9%
- activity at 0.1 µM [1, 8]: 97 ± 1.4%
- activity at 0.1 µM [1, 9]: 96 ± 1.2%
- activity at 0.1 µM [1, 10]: 99 ± 0.8%
- activity at 0.1 µM [1, 11]: 107 ± 17.8%
- activity at 0.3 µM [1, 8]: 100 ± 2.2%
- activity at 0.3 µM [1, 9]: 100 ± 1%
- activity at 0.3 µM [1, 10]: 97 ± 0.7%
- activity at 0.3 µM [1, 11]: 121 ± 16.3%
- activity at 1 µM [1, 8]: 95 ± 1.7%
- activity at 1 µM [1, 9]: 98 ± 0.9%
- activity at 1 µM [1, 10]: 97 ± 0.7%
- activity at 1 µM [1, 11]: 96 ± 7.8%
- activity at 3 µM [1, 8]: 93 ± 1.9%
- activity at 3 µM [1, 9]: 98 ± 0.9%
- activity at 3 µM [1, 10]: 98 ± 0.5%
- activity at 3 µM [1, 11]: 114 ± 10.2%
- effects on contractile activity [2, 16]: no physiologically significant effects
- activity at 0.1 µM [2, 12]: 125 ± 20.8%
- activity at 0.1 µM [2, 13]: 94 ± 3.2%
- activity at 0.3 µM [2, 12]: 94 ± 9.6%
- activity at 0.3 µM [2, 13]: 100 ± 2.4%
- activity at 1 µM [2, 12]: 155 ± 32.5%
- activity at 1 µM [2, 13]: 102 ± 2.7%
- activity at 3 µM [2, 12]: 122 ± 26.6%
- activity at 3 µM [2, 13]: 101 ± 1.8%
- activity at 0.1 µM [2, 14]: 120 ± 12.4%
- activity at 0.1 µM [2, 15]: 104 ± 2%
- activity at 0.3 µM [2, 14]: 95 ± 8.1%
- activity at 0.3 µM [2, 15]: 102 ± 1.3%
- activity at 1 µM [2, 14]: 199 ± 27.2%
- activity at 1 µM [2, 15]: 104 ± 2%
- activity at 3 µM [2, 14]: 167 ± 33.5%
- activity at 3 µM [2, 15]: 103 ± 2.3%
- increasing the amplitude of contraction (positive inotropy) ([2]; both experimental groups): ineffective
- contractile amplitude at higher concentrations (in words) ([2]; higher concentrations, FM and MM, not statistically significant): increased
- change in amplitude of contraction at higher concentrations ([2]; higher concentrations, both groups, failed to reach significance): < 20%
- Free Cmax [3]: 100 nM
